Consider 6 compounds from US20070282011A1, “Biodegradable water soluble polymers” (MediVas, LLC, priority 2006, published 2007).

For series [1] the following is noted: ionizable group of side chain R3 of natural amino acid residue; tabulated as a guide; cited from earlier work.
A short description of series [2]: in vitro. The settings on record: endothelial cells.
Procedure: (§1) In vitro assays were conducted using endothelial cells and smooth muscle cells.
(§2) The cells were then fed again with fresh medium (Endothelial Growth Media, EGM-2 BulletKit, Cambrex) and increasing doses of the test substrates were introduced at the following concentrations: 0.1, 0.5, 1, 2, 8 and 40 ng/ml in triplicate. […] The percent cell viability was then determined at 24, 48 and 72 hours following exposure to the test substances, using a standard ATP assay (ViaLight Plus assay kit, Cambrex).
The subject of series [3] is endothelial cells. As to the kind of experiment: In vitro cell culture cytotoxicity, percent cell viability by ATP assay (ViaLight Plus). The settings on record: 0.1-40 ng/ml Taxol equivalent.
Procedure: as §1, §2

In the case of `N[C@@H](CCC(=O)O)C(=O)O` [Glutamic acid], in series [1], the pK was 4.07. Take `N[C@@H](Cc1c[nH]cn1)C(=O)O` [Histidine]: the pK in series [1] is recorded as 6.10. As to `NCCCC[C@H](N)C(=O)O` [Lysine], the pK in series [1] is reported as 10.5. In general, viability refers to a read-out of living cells in per cent, often relative to untreated cells. `CC(=O)O[C@H]1C(=O)[C@@]2(C)[C@H]([C@H](OC(=O)c3ccccc3)[C@]3(O)C[C@H](OC(=O)[C@H](O)[C@@H](NC(=O)c4ccccc4)c4ccccc4)C(C)=C1C3(C)C)[C@]1(OC(C)=O)CO[C@@H]1C[C@@H]2O` [Taxol, 5β,20-Epoxy-1,2α,4,7β,10β,13α-hexahydroxytax-11-en-9-one 4,10-diacetate 2-benzoate 13-ester with (2R,3S)—N-benzoyl-3-phenylisoserine]: in series [2], the viability at 72 h, 0.1 ng/ml worked out at 126%; the viability at 72 h, 0.5 ng/ml was 123%; the viability at 72 h, 1 ng/ml is 114%; the viability at 72 h, 2 ng/ml was found to be 90%. Also, in series [2], the viability at 72 h, 8 ng/ml came out at 38.6% and the viability at 72 h, 40 ng/ml was 15.5%. As for `CC(=O)O[C@H]1C(=O)[C@@]2(C)[C@H]([C@H](OC(=O)c3ccccc3)[C@]3(O)C[C@H](OC(=O)[C@H](OC(=O)CCC(=O)O)[C@@H](NC(=O)c4ccccc4)c4ccccc4)C(C)=C1C3(C)C)[C@]1(OC(C)=O)CO[C@@H]1C[C@@H]2O` [Taxol-SA, Taxol-2′-hemisuccinate], the “cytotoxicity to the cells (in words)” value in series [3] was “does not appear to change the cytotoxicity”. On to `N[C@@H](Cc1ccc(O)cc1)C(=O)O` [Tyrosine], for which, in series [1], the pK was 10.0.
